In PubChem BioAssay AID2060904 (Molecular Pharmacology Branch, DTP, NCI, 2025):

Test system: 349418-098-R-PDC complex spheroid viability
Assay: Anticancer human tumor 349418-098-R-PDC patient-derived lung adenocarcinoma cell line growth inhibition [RAS]
Conditions: for IC50: curve of first compound; for viability, T/C: stronger effect = lower value
Description: RAS pathway inhibitors in Combinations in Complex Spheroids
A high-throughput screen of multi-cell type tumor spheroids was designed to identify active combinations of RAS pathway inhibitors and targeted small molecules. Complex spheroids include a stromal component modeled by human endothelial cells (HUVEC) and fibroblasts modeled by human mesenchymal stem cells (MSCs). The concentration ranges selected for each drug and investigational agent were based upon clinically achievable concentrations if the clinical Cmax of the agent was known.
Compounds. The drugs and investigational agents: abemaciclib (NSC768073), cobimetinib (NSC768068), divarasib (GDC6063, NSC841802), docetaxel (NSC628503), GDC-1971 (RLY-1971, NSC841576), gemcitabine (NSC613327), inavolisib (NSC800729), ipatasertib (NSC767898), KB-0742 (NSC834161), MRTX-1133 (NSC836407), osimertinib (NSC779217), RMC-4630 (NSC839698), RMC-6236 (NSC851965), RMC-6291 (NSC852671), Ro-3306 (NSC812927), sapanisertib (NSC764658), SN-38 (NSC673596), staurosporine (NSC755774), SY5609 (NSC837396), and tovorafenib (DAY101, NSC766906), were obtained from the National Cancer Institute (NCI) Developmental Therapeutics Program Chemical Repository. The FDA-approved anticancer drug set is available from the NCI Developmental Therapeutics Program. […] The stock solutions were prepared in dimethyl sulfoxide (DMSO, Sigma-Aldrich, St. Louis, MO, cat. D2650) at 800-fold the tested concentration and stored at -70 degrees C prior to their use. All drugs and investigational agents were tested over a range starting from a high concentration at or near the clinical Cmax and decreasing in half-log increments. If the clinical Cmax for an agent had not been determined, the highest concentration tested was 10 microM.
Cell Culture. All cells were maintained in an incubator at 37 degrees C and 5% CO2 with 95% humidity. The PDC lines were cultured according to standard operating procedures established by the NCI PDMR. All PDCs were thawed and cultured in Matrigel-coated flasks prepared with a working solution of 1X Ham's F-12 nutrient mix, without supplementation (Invitrogen, Waltham, MA, cat. 11765054), 100 U/mL penicillin-streptomycin (Invitrogen, cat. 15140122), and 2.5% Matrigel (Corning Inc., Corning, NY, cat. 354248) for the first three passages. The 362531-283-R-J2-PDC and 782815-120-R-J1-PDC lines were cultured in 6C/Colon 1B media, which includes advanced DMEM/F-12 (Thermo Fisher Scientific, cat. 12634028), 10 mM HEPES (Thermo Fisher Scientific, cat. 15630080), 1X GlutaMAX supplement (Thermo Fisher Scientific, cat. 35050061), 0.1 mg/mL primocin (InvivoGen, San Diego, CA, cat. ant-pm-2), 10% defined fetal bovine serum, heat inactivated (HyClone Laboratories Inc., Logan, UT, cat. SH30070.03HI), 50% L-WRN conditioned media (ATCC, cat. CRL-3276), 1.25 mM N-Acetyl-L-cysteine (Sigma-Aldrich, cat. A9165), 10 mM nicotinamide (Sigma-Aldrich, cat. N0636), 1X B-27 supplement (Thermo Fisher Scientific, cat. 17504044), 1X N-2 supplement (Thermo Fisher Scientific, cat. 17502048), 50 ng/mL human EGF (Thermo Fisher Scientific, cat. PHG0311), and 10 microM Y-27632 dihydrochloride (Tocris Bioscience, cat. 1254). The K12877-001-R-J1-PDC line was cultured in 6I media, which includes all 6C/Colon 1B media plus 10 ng/mL human FGF-10 (PeproTech, cat. 100-26), 1 ng/mL human FGF-2 (PeproTech, cat. 100-18B), 1 µM prostaglandin E2 (Tocris Bioscience, cat. 2296), […] hydrocortisone (Sigma-Aldrich, cat. H4001), and […] bovine insulin (Sigma-Aldrich, cat. I6634). The K86415-001-R-J1-PDC line was cultured in 6D media, which includes all 6C/Colon 1B media components minus the L-WRN conditioned media. The 485176-168-R4-J1-PDC was cultured in PANC media, which includes all 6C/Colon 1B media plus 100 ng/mL human FGF-10 (PeproTech, cat. 100-26), 500 nM SB-431542 (Selleckchem, cat. S1067), and 10 nM gastrin (Tocris Bioscience, cat. 3006). […]

[1] = second compound 0.0316 µM, first compound 0.0316 µM
[2] = second compound 0.0316 µM, first compound 0.1 µM
[3] = second compound 0.0316 µM, first compound 0.316 µM
[4] = second compound 0.0316 µM, first compound 1 µM
[5] = second compound 0.0316 µM, first compound 3.16 µM
[6] = second compound 0.0316 µM, first compound 10 µM
[7] = second compound 0.1 µM, first compound 0.0316 µM
[8] = second compound 0.1 µM, first compound 0.1 µM
[9] = second compound 0.1 µM, first compound 0.316 µM
[10] = second compound 0.1 µM, first compound 1 µM
[11] = second compound 0.1 µM, first compound 3.16 µM
[12] = second compound 0.1 µM, first compound 10 µM
[13] = second compound 0.316 µM, first compound 0.0316 µM
[14] = second compound 0.316 µM, first compound 0.1 µM
[15] = second compound 0.316 µM, first compound 0.316 µM
[16] = second compound 0.316 µM, first compound 1 µM
[17] = second compound 0.316 µM, first compound 3.16 µM
[18] = second compound 0.316 µM, first compound 10 µM
[19] = second compound 1 µM, first compound 0.0316 µM
[20] = second compound 1 µM, first compound 0.1 µM
[21] = second compound 1 µM, first compound 0.316 µM
[22] = second compound 1 µM, first compound 1 µM
[23] = second compound 1 µM, first compound 3.16 µM
[24] = second compound 1 µM, first compound 10 µM
[25] = second compound 3.16 µM, first compound 0.0316 µM
[26] = second compound 3.16 µM, first compound 0.1 µM
[27] = second compound 3.16 µM, first compound 0.316 µM
[28] = second compound 3.16 µM, first compound 1 µM
[29] = second compound 3.16 µM, first compound 3.16 µM
[30] = second compound 3.16 µM, first compound 10 µM
[31] = second compound 10 µM, first compound 0.0316 µM
[32] = second compound 10 µM, first compound 0.1 µM
[33] = second compound 10 µM, first compound 0.316 µM
[34] = second compound 10 µM, first compound 1 µM
[35] = second compound 10 µM, first compound 3.16 µM
[36] = second compound 10 µM, first compound 10 µM
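Note: spheroids exposed to compound for seven days before viability readout.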

CCC(CC)c1cc(NC2CCC(N)C2)n2nccc2n1 (stereo unspecified) + C#Cc1c(F)ccc2cc(O)cc(-c3ncc4c(N5CC6CCC(C5)N6)nc(OCC56CCCN5CC(F)C6)nc4c3F)c12
IC50 (second compound 0.0316 µM): 0.736 µM | IC50 (second compound 0.1 µM): 0.81 µM | IC50 (second compound 0.316 µM): 0.903 µM | IC50 (second compound 1 µM): 0.875 µM | IC50 (second compound 3.16 µM): 0.714 µM | IC50 (second compound 10 µM): < 0.0316 µM | viability, T/C [1]: 91.3% | viability, T/C [2]: 106% | viability, T/C [3]: 76.1% | viability, T/C [4]: 41.9% | viability, T/C [5]: 3.06% | viability, T/C [6]: 2.85% | viability, T/C [7]: 84.2% | viability, T/C [8]: 107% | viability, T/C [9]: 84.5% | viability, T/C [10]: 42.6% | viability, T/C [11]: 2.89% | viability, T/C [12]: 2.86% | viability, T/C [13]: 91.3% | viability, T/C [14]: 112% | viability, T/C [15]: 106% | viability, T/C [16]: 44.8% | viability, T/C [17]: 4.03% | viability, T/C [18]: 2.72% | viability, T/C [19]: 75.8% | viability, T/C [20]: 85.6% | viability, T/C [21]: 67.2% | viability, T/C [22]: 48.9% | viability, T/C [23]: 3.08% | viability, T/C [24]: 3.26% | viability, T/C [25]: 75% | viability, T/C [26]: 97.5% | viability, T/C [27]: 83.2% | viability, T/C [28]: 36.1% | viability, T/C [29]: 3.69% | viability, T/C [30]: 3.11% | viability, T/C [31]: 52.5% | viability, T/C [32]: 44.7% | viability, T/C [33]: 42.7% | viability, T/C [34]: 20.4% | viability, T/C [35]: 1.26% | viability, T/C [36]: 0.7%

Cc1nc(N2CCC3(CC2)COC(C)C3N)c(CO)nc1Sc1ccnc(N)c1Cl (stereo unspecified) + C#Cc1c(F)ccc2cc(O)cc(-c3ncc4c(N5CC6CCC(C5)N6)nc(OCC56CCCN5CC(F)C6)nc4c3F)c12
IC50 (second compound 0.0316 µM): > 10 µM | IC50 (second compound 0.1 µM): > 10 µM | IC50 (second compound 0.316 µM): > 10 µM | IC50 (second compound 1 µM): > 10 µM | IC50 (second compound 3.16 µM): > 10 µM | IC50 (second compound 10 µM): > 10 µM | viability, T/C [1]: 102% | viability, T/C [2]: 108% | viability, T/C [3]: 105% | viability, T/C [4]: 63.1% | viability, T/C [5]: 86% | viability, T/C [6]: 71.2% | viability, T/C [7]: 112% | viability, T/C [8]: 90.8% | viability, T/C [9]: 98.2% | viability, T/C [10]: 88.8% | viability, T/C [11]: 108% | viability, T/C [12]: 86% | viability, T/C [13]: 94.3% | viability, T/C [14]: 88% | viability, T/C [15]: 101% | viability, T/C [16]: 104% | viability, T/C [17]: 104% | viability, T/C [18]: 67.3% | viability, T/C [19]: 89.4% | viability, T/C [20]: 94.6% | viability, T/C [21]: 87% | viability, T/C [22]: 83.2% | viability, T/C [23]: 111% | viability, T/C [24]: 71.9% | viability, T/C [25]: 59.6% | viability, T/C [26]: 108% | viability, T/C [27]: 101% | viability, T/C [28]: 62.2% | viability, T/C [29]: 114% | viability, T/C [30]: 80.3% | viability, T/C [31]: 75.4% | viability, T/C [32]: 43.9% | viability, T/C [33]: 70.3% | viability, T/C [34]: 74.1% | viability, T/C [35]: 73% | viability, T/C [36]: 77%

NC1c2ccccc2OC12CCN(c1cnc3c(N4CCCc5ncccc54)n[nH]c3n1)CC2 (stereo unspecified) + C#Cc1c(F)ccc2cc(O)cc(-c3ncc4c(N5CC6CCC(C5)N6)nc(OCC56CCCN5CC(F)C6)nc4c3F)c12
IC50 (second compound 0.0316 µM): > 10 µM | IC50 (second compound 0.1 µM): 9.34 µM | IC50 (second compound 0.316 µM): > 10 µM | IC50 (second compound 1 µM): > 10 µM | IC50 (second compound 3.16 µM): > 10 µM | IC50 (second compound 10 µM): > 10 µM | viability, T/C [1]: 113% | viability, T/C [2]: 108% | viability, T/C [3]: 96.7% | viability, T/C [4]: 79.7% | viability, T/C [5]: 90.1% | viability, T/C [6]: 63% | viability, T/C [7]: 86.7% | viability, T/C [8]: 86.2% | viability, T/C [9]: 94.7% | viability, T/C [10]: 79.1% | viability, T/C [11]: 94.3% | viability, T/C [12]: 47.6% | viability, T/C [13]: 94.2% | viability, T/C [14]: 120% | viability, T/C [15]: 105% | viability, T/C [16]: 76.2% | viability, T/C [17]: 83.5% | viability, T/C [18]: 58.4% | viability, T/C [19]: 95.9% | viability, T/C [20]: 92.4% | viability, T/C [21]: 87.5% | viability, T/C [22]: 99.6% | viability, T/C [23]: 104% | viability, T/C [24]: 54.2% | viability, T/C [25]: 71% | viability, T/C [26]: 90.4% | viability, T/C [27]: 90.1% | viability, T/C [28]: 84.3% | viability, T/C [29]: 84.9% | viability, T/C [30]: 77% | viability, T/C [31]: 85.3% | viability, T/C [32]: 22.6% | viability, T/C [33]: 67.2% | viability, T/C [34]: 82.7% | viability, T/C [35]: 65.3% | viability, T/C [36]: 67.2%
